Values of other authors in patent US20110184054A1, “Alpha-lipoic acid concentrate” (AQUANOVA GERMAN SOLUBILISATE TECHNOLOGIES (AGT) GmbH, priority 2004, published 2011).

## O=C(O)CCCCC1CCSS1 (stereo not drawn) [α-lipoic acid]
Overweight patients
  effect on problems of overweight patients: alleviates their problems
rats
  appetite suppressing effect: a certain appetite suppressing effect
